Patent EP0481802A1, “Hydroxylated inhibitors of HIV reverse transcriptase” (MERCK & CO. INC., priority 1990, dated 1992)

Molecular target: T1, recombinant HIV reverse transcriptase (HIV RTR) (Human immunodeficiency virus type 1 group M subtype B, UniProt P04585)
T1 construct: recombinant HIV reverse transcriptase (HIV RTR)
Experiment: Reverse Transcriptase Assay
Format: biochemical
Conditions: incorporation of [³H] dGMP into acid-precipitable cDNA, dGTP and poly r(C)·oligo d(G)12-18 at Km, 37°C for 45 minutes; read-out: IC₅₀
Method: The assay measures the incorporation of tritiated deoxyguanosine monophosphate by recombinant HIV reverse transcriptase (HIV RTR) (or other RT) into acid-precipitable cDNA at the Km values of dGTP and poly r(C)·oligo d(G)₁₂₋₁₈.
Thirty uL of a reaction mixture containing equal volumes of: 500 mM Tris·HCl (pH 8.2), 300 mM MgCl₂, 1200 mM KCl, 10 mM DTT, 400 µg/mL poly r(c)·oligo d(G) [prepared by dissolving 1.5 mg (25 U) poly r(C)·oligo d(G) in 1.5 ml sterile distilled H₂O and diluting to 400 µg/ml], 0.1 µCi/µl [³H] dGTP, 160 µM dGTP, was added to 10 µl sterile distilled H₂O, 2.5 µl of potential inhibitor and 10 µL of 5 nM purified HIV RTR in tubes. The mixture was incubated at 37°C for 45 minutes.
After incubation is complete, the tubes were cooled in ice for 5 minutes. Ice-cold 13% TCA containing 10 mM NaPPi (200 µl) are added and the mixture incubated on ice for 30 minutes. The precipitated cDNA is removed by filtration using presoaked glass filters [TCA, NaPPi]. The precipitate is then washed with 1N HCl, 10 mM NaPPi.
The filter discs are then counted in a scintillation counter.
Under these conditions [dGTP] and poly r(C)·oligo d(G)₁₂₋₁₈ each are approximately equal to the appropriate Km value. […] Calculated IC₅₀ values for the lead compounds of this invention were approximately 94nM and (more than or equal to) 300 µM for L-697,914 and L-697,913, respectively. […]

SMILES	IC50 [µM]
Cc1[nH]c(=O)c(NCc2nc3ccccc3o2)cc1C(C)O [L-697,913, 3-[(benzoxazol-2-yl)methylamino]-5-(1-hydroxyethyl)-6-methylpyridin-2(1H)-one]	≥ 300
CCc1cc(NCc2nc3ccccc3o2)c(=O)[nH]c1CO [L-697,914, 3-[(benzoxazol-2-yl)methylamino]-5-ethyl-6-hydroxymethylpyridin-2(1H)-one]	~0.094
